Test results reported in US8163777B2, “Benzimidazolyl-pyridine compounds for inflammation and immune-related uses” (Synta Pharmaceuticals Corp., priority 2006, dated 2012).

Key:
[1] = system: IL-2, IL-4, IL-5, IL-13, GM-CSF, INF-γ and TNF-α; assay: Inhibition of multiple cytokines in primary human PBMCs (summary statement); type: cell-based; settings: PHA-stimulated PBMCs
Protocol: Cytokine production was measured using commercially available human ELISA assay kits (from Cell Science, Inc.) following the manufacturers instructions.

IL-2 production = assay: Inhibition of IL-2 production in PHA-activated Jurkat cells (ELISA); type: cell-based; settings: Homo sapiens, PHA 2.5 μg/mL, 20 hours
Protocol: Jurkat cells were placed in a 96 well plate (0.5 million cells per well in 1% FBS medium) then test compounds of this invention were added at different concentrations. After 10 minutes, the cells were activated with PHA (final concentration 2.5 μg/mL) and incubated for 20 hours at 37° C. under CO2. The final volume was 200 μL. Following incubation, the cells were centrifuged and the supernatants collected and stored at −70° C. prior to assaying for IL-2 production. A commercial ELISA kit (IL-2 Eli-pair, Diaclone Research, Besancon, France) was used to detect production of IL-2, from which dose response curves were obtained. The IC50 value was calculated as the concentration at which 50% of maximum IL-2 production after stimulation was inhibited versus a non-stimulation control.

[2] = bin given with mixed units 500 nM-1 μM

IC50 (IL-2 production; binned values) [µM] | Compound | further results
– | CC(C)(C)OC(=O)Nc1ccc(C(=O)Nc2ccc(-n3c(C(F)(F)F)nc4ccccc43)cc2)c(F)c1F [Compound 31, N-(4-{N-[4-(2-trifluoromethyl-benzoimidazol-1-yl)-phenyl]-carbamoyl}-2,3-difluoro-phenyl)-carbamic acid t-butyl ester] | inhibition of IL-2, IL-4, IL-5, IL-13, GM-CSF, INF-γ and TNF-α (in words) [1]: potent inhibitors
– | CCCCc1ccc(C(=O)Nc2ccc(-n3c(C(F)(F)F)nc4cc(OC)ccc43)cc2)cc1 [Compound 66, 4-Butyl-N-[4-(2-trifluoromethyl-5-methoxy-benzoimidazol-1-yl)-phenyl]-benzamide] | inhibition of IL-2, IL-4, IL-5, IL-13, GM-CSF, INF-γ and TNF-α (in words) [1]: potent inhibitors
0.1 to 0.5 | COc1ccc2c(c1)nc(C(F)(F)F)n2-c1ccc(NC(=O)c2cccc(C#N)c2)nc1 [Compound 183, 3-Cyano-N-[5-(5-methoxy-2-trifluoromethyl-benzoimidazol-1-yl)-pyridin-2-yl]-benzamide] | –
0.1 to 0.5 | COc1ccc2c(c1)nc(C(F)(F)F)n2-c1ccc(NC(=O)c2cccc([N+](=O)[O-])c2)nc1 [Compound 184, N-[5-(5-Methoxy-2-trifluoromethyl-benzoimidazol-1-yl)-pyridin-2-yl]-3-nitro-benzamide] | –
< 0.1 | COc1ccc2c(c1)nc(C(F)(F)F)n2-c1ccc(NC(=O)c2ccccc2F)nc1 [Compound 185, 2-Fluoro-N-[5-(5-methoxy-2-trifluoromethyl-benzoimidazol-1-yl)-pyridin-2-yl]-benzamide] | –
– | COc1ccc2c(c1)nc(C(F)(F)F)n2-c1ccc(NC(=O)c2cccc(F)c2)nc1 [Compound 186, 3-Fluoro-N-[5-(5-methoxy-2-trifluoromethyl-benzoimidazol-1-yl)-pyridin-2-yl]-benzamide] | IC50 (IL-2 production; [2]): 0.5 to 1 µM
< 0.1 | COc1ccc2c(c1)nc(C(F)(F)F)n2-c1ccc(NC(=O)c2ccccc2I)nc1 [Compound 187, 2-Iodo-N-[5-(5-methoxy-2-trifluoromethyl-benzoimidazol-1-yl)-pyridin-2-yl]-benzamide] | –
< 0.1 | COc1ccc2c(c1)nc(C(F)(F)F)n2-c1ccc(NC(=O)CC(C)C)nc1 [Compound 189, N-[5-(5-Methoxy-2-trifluoromethyl-benzoimidazol-1-yl)-pyridin-2-yl]-3-methyl-butyramide] | –
0.1 to 0.5 | COc1ccc2c(c1)nc(C(F)(F)F)n2-c1ccc(NC(=O)c2ccc([N+](=O)[O-])cc2)nc1 [Compound 190, N-[5-(5-Methoxy-2-trifluoromethyl-benzoimidazol-1-yl)-pyridin-2-yl]-4-nitro-benzamide] | –
0.1 to 0.5 | COc1ccc2c(c1)nc(C(F)(F)F)n2-c1ccc(NC(=O)c2cccc(Br)c2)nc1 [Compound 191, 3-Bromo-N-[5-(5-methoxy-2-trifluoromethyl-benzoimidazol-1-yl)-pyridin-2-yl]-benzamide] | –
0.1 to 0.5 | COC(=O)c1cccc(C(=O)Nc2ccc(-n3c(C(F)(F)F)nc4cc(OC)ccc43)cn2)c1 [Compound 192, N-[5-(5-Methoxy-2-trifluoromethyl-benzoimidazol-1-yl)-pyridin-2-yl]-isophthalamic acid methyl ester] | –
< 0.1 | COc1ccc2c(c1)nc(C(F)(F)F)n2-c1ccc(NC(=O)C2CCCC2)nc1 [Compound 193, Cyclopentanecarboxylic acid [5-(5-methoxy-2-trifluoromethyl-benzoimidazol-1-yl)-pyridin-2-yl]-amide] | –
– | COc1ccc2c(c1)nc(C(F)(F)F)n2-c1ccc(NC(=O)c2csnc2C)nc1 [Compound 194, 3-Methyl-isothiazole-4-carboxylic acid [5-(5-methoxy-2-trifluoromethyl-benzoimidazol-1-yl)-pyridin-2-yl]-amide] | IC50 (IL-2 production; [2]): 0.5 to 1 µM
0.1 to 0.5 | COc1ccc2c(c1)nc(C(F)(F)F)n2-c1ccc(NC(=O)c2scnc2Br)nc1 [Compound 195, 4-Bromo-thiazole-5-carboxylic acid [5-(5-methoxy-2-trifluoromethyl-benzoimidazol-1-yl)-pyridin-2-yl]-amide] | –
0.1 to 0.5 | COc1ccc2c(c1)nc(C(F)(F)F)n2-c1ccc(NC(=O)c2ccc(Br)cc2)nc1 [Compound 196, 4-Bromo-N-[5-(5-methoxy-2-trifluoromethyl-benzoimidazol-1-yl)-pyridin-2-yl]-benzamide] | –
< 0.1 | COc1ccc2c(c1)nc(C(F)(F)F)n2-c1ccc(NC(=O)c2ccccc2[N+](=O)[O-])nc1 [Compound 197, 2-Nitro-N-[5-(5-methoxy-2-trifluoromethyl-benzoimidazol-1-yl)-pyridin-2-yl]-benzamide] | –
– | COc1ccc2c(c1)nc(C(F)(F)F)n2-c1ccc(NC(=O)c2cccc(C)c2)nc1 [Compound 198, N-[5-(5-Methoxy-2-trifluoromethyl-benzoimidazol-1-yl)-pyridin-2-yl]-3-methyl-benzamide] | IC50 (IL-2 production; [2]): 0.5 to 1 µM

IC50 (IL-2 production; binned values) [µM] | Compound | further results
– | COc1ccc2c(c1)nc(C(F)(F)F)n2-c1ccc(NC(=O)c2ccc(C)cc2C)nc1 [Compound 200, N-[5-(5-Methoxy-2-trifluoromethyl-benzoimidazol-1-yl)-pyridin-2-yl]-2,4-dimethyl-benzamide] | IC50 (IL-2 production; [2]): 0.5 to 1 µM
0.1 to 0.5 | COc1ccc2c(c1)nc(C(F)(F)F)n2-c1ccc(NC(=O)c2ccncc2F)nc1 [Compound 201, 3-Fluoro-N-[5-(5-methoxy-2-trifluoromethyl-benzoimidazol-1-yl)-pyridin-2-yl]-isonicotinamide] | –
< 0.1 | COc1ccc2c(c1)nc(C(F)(F)F)n2-c1ccc(NC(=O)c2cccc(C)c2C)nc1 [Compound 202, N-[5-(5-Methoxy-2-trifluoromethyl-benzoimidazol-1-yl)-pyridin-2-yl]-2,3-dimethyl-benzamide] | –
> 1 | COc1ccc2c(c1)nc(C(F)(F)F)n2-c1ccc(NC(=O)c2ccc(N(C)C)cc2)nc1 [Compound 203, 4-Dimethylamino-N-[5-(5-methoxy-2-trifluoromethyl-benzoimidazol-1-yl)-pyridin-2-yl]-benzamide] | –
> 1 | COc1cccc(C(=O)Nc2ccc(-n3c(C(F)(F)F)nc4cc(OC)ccc43)cn2)c1 [Compound 204, 3-Methoxy-N-[5-(5-methoxy-2-trifluoromethyl-benzoimidazol-1-yl)-pyridin-2-yl]-benzamide] | –
> 1 | COc1ccc2c(c1)nc(C(F)(F)F)n2-c1ccc(NC(=O)c2csnn2)nc1 [Compound 205, [1,2,3]Thiadiazole-4-carboxylic acid [5-(5-methoxy-2-trifluoromethyl-benzoimidazol-1-yl)-pyridin-2-yl]-amide] | –
> 1 | COc1ccc2c(c1)nc(C(F)(F)F)n2-c1ccc(NC(=O)c2ccccc2OC)nc1 [Compound 206, 2-Methoxy-N-[5-(5-methoxy-2-trifluoromethyl-benzoimidazol-1-yl)-pyridin-2-yl]-benzamide] | –
> 1 | CCCc1ccc(C(=O)Nc2ccc(-n3c(C(F)(F)F)nc4cc(OC)ccc43)cn2)cc1 [Compound 207, N-[5-(5-Methoxy-2-trifluoromethyl-benzoimidazol-1-yl)-pyridin-2-yl]-4-propyl-benzamide] | –
> 1 | COc1ccc2c(c1)nc(C(F)(F)F)n2-c1ccc(NC(=O)c2cccc(N(C)C)c2)nc1 [Compound 208, 3-Dimethylamino-N-[5-(5-methoxy-2-trifluoromethyl-benzoimidazol-1-yl)-pyridin-2-yl]-benzamide] | –
> 1 | COc1ccc2c(c1)nc(C(F)(F)F)n2-c1ccc(NC(=O)c2cccc(SC)c2)nc1 [Compound 209, N-[5-(5-Methoxy-2-trifluoromethyl-benzoimidazol-1-yl)-pyridin-2-yl]-3-methylsulfanyl-benzamide] | –
> 1 | COc1ccc2c(c1)nc(C(F)(F)F)n2-c1ccc(NC(=O)c2ccc(SC)cc2)nc1 [Compound 210, N-[5-(5-Methoxy-2-trifluoromethyl-benzoimidazol-1-yl)-pyridin-2-yl]-4-methylsulfanyl-benzamide] | –
> 1 | COc1ccc2c(c1)nc(C(F)(F)F)n2-c1ccc(NC(=O)c2ccc(C)cc2)nc1 [Compound 211, N-[5-(5-Methoxy-2-trifluoromethyl-benzoimidazol-1-yl)-pyridin-2-yl]-4-methyl-benzamide] | –
> 1 | CNCc1ccc(C(=O)Nc2ccc(-n3c(C(F)(F)F)nc4cc(OC)ccc43)cn2)cc1 [Compound 212, N-[5-(5-Methoxy-2-trifluoromethyl-benzoimidazol-1-yl)-pyridin-2-yl]-4-methylaminomethyl-benzamide] | –
> 1 | COc1ccc2c(c1)nc(C(F)(F)F)n2-c1ccc(NC(=O)C(C)(C)C)nc1 [Compound 213, N-[5-(5-Methoxy-2-trifluoromethyl-benzoimidazol-1-yl)-pyridin-2-yl]-2,2-dimethyl-propionamide] | –
> 1 | COc1ccc2c(c1)nc(C(F)(F)F)n2-c1ccc(NC(=O)C(C)C)nc1 [Compound 214, N-[5-(5-Methoxy-2-trifluoromethyl-benzoimidazol-1-yl)-pyridin-2-yl]-isobutyramide] | –
> 1 | CCc1ccc(C(=O)Nc2ccc(-n3c(C(F)(F)F)nc4cc(OC)ccc43)cn2)cc1 [Compound 215, 4-Ethyl-N-[5-(5-methoxy-2-trifluoromethyl-benzoimidazol-1-yl)-pyridin-2-yl]-benzamide] | –
> 1 | COc1ccc2c(c1)nc(C(F)(F)F)n2-c1ccc(NC(=O)c2ncc[nH]2)nc1 [Compound 216, 1H-Imidazole-2-carboxylic acid [5-(5-methoxy-2-trifluoromethyl-benzoimidazol-1-yl)-pyridin-2-yl]-amide] | –
